# Data: ChEMBL document CHEMBL5365529, “Construction and Evaluation of Novel Dual-function Antifungal Inhibitors and Covalent Organic Framework Carriers Based on the Infection Microenvironment” (J Med Chem, 2023)
# The source made the active and inactive calls. The calls are words filed in the database; no cut-off is given here.
# What was measured:
# [1] = target: T1, Lanosterol 14-alpha demethylase (Candida albicans (strain SC5314 / ATCC MYA-2876) (Yeast), UniProt P10613); test: Inhibition of CYP51 in Candida albicans SC5314 assessed as unknown sterol level at 4 ug/ml incubated for 16 hrs by GC-MS analysis (reference value: 5.35 %); parameters: scale not given: the % may be the effect or the level left; conditions: at 4 µg/mL
# T1 sequence (P10613 whole entry): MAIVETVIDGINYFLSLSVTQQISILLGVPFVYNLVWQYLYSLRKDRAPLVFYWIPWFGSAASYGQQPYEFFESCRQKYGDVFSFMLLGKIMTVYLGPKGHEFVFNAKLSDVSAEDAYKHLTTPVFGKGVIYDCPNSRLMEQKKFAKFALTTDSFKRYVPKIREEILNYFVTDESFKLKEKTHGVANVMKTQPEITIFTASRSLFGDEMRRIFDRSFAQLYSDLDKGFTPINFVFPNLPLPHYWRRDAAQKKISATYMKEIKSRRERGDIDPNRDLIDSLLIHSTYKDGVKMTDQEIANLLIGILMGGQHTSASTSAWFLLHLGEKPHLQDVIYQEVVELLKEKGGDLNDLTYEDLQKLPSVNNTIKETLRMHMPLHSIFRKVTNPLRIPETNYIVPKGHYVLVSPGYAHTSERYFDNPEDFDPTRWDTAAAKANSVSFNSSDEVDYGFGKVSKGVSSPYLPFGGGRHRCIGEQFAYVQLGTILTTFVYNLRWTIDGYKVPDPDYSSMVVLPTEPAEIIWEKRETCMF
# [2] = target: T1, Lanosterol 14-alpha demethylase; test: Inhibition of CYP51 in Candida albicans SC5314 assessed as lanosterol level at 4 ug/ml incubated for 16 hrs by GC-MS analysis relative to control; parameters: scale not given: the % may be the effect or the level left; conditions: at 4 µg/mL
# Candida albicans [3] = test: Antifungal activity against Candida albicans SC5314 assessed as fungal growth inhibition incubated for 72 hrs by CLSI based susceptibility test; format: functional
# Nakaseomyces glabratus = test: Antifungal activity against Candida glabrata assessed as fungal growth inhibition incubated for 72 hrs by CLSI based susceptibility test; format: functional
# Candida tropicalis = test: Antifungal activity against Candida tropicalis ATCC 1369 assessed as fungal growth inhibition incubated for 72 hrs by CLSI based susceptibility test; format: functional
# Cryptococcus neoformans = test: Antifungal activity against Cryptococcus neoformans ZKCC 2209 assessed as fungal growth inhibition incubated for 72 hrs by CLSI based susceptibility test; format: functional
# Aspergillus fumigatus = test: Antifungal activity against Aspergillus fumigatus KM8001 assessed as fungal growth inhibition incubated for 72 hrs by CLSI based susceptibility test; format: functional
# Candida albicans [4] = test: Antifungal activity against FLC-resistant Candida albicans 632 assessed as fungal growth inhibition incubated for 72 hrs by CLSI based susceptibility test; format: functional
# Candida albicans [5] = test: Antifungal activity against FLC-resistant Candida albicans 17# assessed as fungal growth inhibition incubated for 72 hrs by CLSI based susceptibility test; format: functional
# Candida albicans [6] = test: Antifungal activity against FLC-resistant Candida albicans CaR assessed as fungal growth inhibition incubated for 72 hrs by CLSI based susceptibility test; format: functional
# Candida albicans [7] = test: Antifungal activity against FLC-resistant Candida albicans 901 assessed as fungal growth inhibition incubated for 72 hrs by CLSI based susceptibility test; format: functional
# Candida albicans [8] = test: Antifungal activity against FLC-resistant Candida albicans 904 assessed as fungal growth inhibition incubated for 72 hrs by CLSI based susceptibility test; format: functional
# [9] = target: T1, Lanosterol 14-alpha demethylase; test: Inhibition of CYP51 in Candida albicans SC5314 using lanosterol as substrate incubated for 60 mins by HPLC analysis
# Candida albicans [10] = test: Induction of mitochondrial membrane depolarization in Candida albicans SC5314 by JC-1 staining based flow cytometry (reference value: 12.51 %); format: functional
# Candida albicans [11] = test: Induction of apoptosis in Candida albicans SC5314 assessed as apoptotic cells incubated for 48 hrs by annexin V-FITC/PI staining based flow cytometry (reference value: 2.12 %); format: functional
# Candida albicans [12] = test: Induction of apoptosis in Candida albicans SC5314 assessed as necrotic cells incubated for 48 hrs by annexin V-FITC/PI staining based flow cytometry (reference value: 2.12 %); format: functional
# Candida albicans [13] = test: Antifungal activity against Candida albicans 901 infected in BALB/c mouse assessed as reduction in fungal growth at 0.5 ug/g administered 6 times measured after 4 days by H and E staining based analysis; format: functional, organism-based; conditions: dose 0.5 µg/g, time 4.0 day
# Candida albicans [14] = test: Antifungal activity against Candida albicans 901 infected in BALB/c mouse assessed as inhibition of fungal proliferation at 0.5 ug/g administered 6 times measured after 4 days in presence of Biphenyl isopropyl ester by Masson staining based analysis; format: functional, organism-based; conditions: dose 0.5 µg/g, time 4.0 day
# Candida albicans [15] = test: Antifungal activity against Candida albicans 901 infected in BALB/c mouse assessed as inhibition of fungal proliferation at 0.5 ug/g administered 6 times measured after 4 days in presence of Biphenyl isopropyl ester by GMS staining based analysis; format: functional, organism-based; conditions: dose 0.5 µg/g, time 4.0 day
# Candida albicans [16] = test: Antifungal activity against Candida albicans 901 infected in BALB/c mouse assessed as decrease in collagen fiber content at 0.5 ug/g administered 6 times measured after 4 days in presence of Biphenyl isopropyl ester by Masson staining based analysis; format: functional, organism-based; conditions: dose 0.5 µg/g, time 4.0 day
# Candida albicans [17] = test: Antifungal activity against Candida albicans 901 infected in BALB/c mouse assessed as decrease in collagen fiber content at 0.5 ug/g administered 6 times measured after 4 days in presence of Biphenyl isopropyl ester by GMS staining based analysis; format: functional, organism-based; conditions: dose 0.5 µg/g, time 4.0 day
# Candida albicans [18] = test: Antifungal activity against Candida albicans 901 infected in BALB/c mouse assessed as repair of tissue damage at 0.5 ug/g administered 6 times measured after 4 days in presence of Biphenyl isopropyl ester by Masson staining based analysis; format: functional, organism-based; conditions: dose 0.5 µg/g, time 4.0 day
# Candida albicans [19] = test: Antifungal activity against Candida albicans 901 infected in BALB/c mouse assessed as repair of tissue damage at 0.5 ug/g administered 6 times measured after 4 days in presence of Biphenyl isopropyl ester by GMS staining based analysis; format: functional, organism-based; conditions: dose 0.5 µg/g, time 4.0 day
# [20] = Toxicity in BALB/c mouse infected with Candida albicans 901 assessed as pathological change in heart at 0.5 ug/g administered 6 times measured after 4 days in presence of Biphenyl isopropyl ester by H and E staining based analysis; format: tissue-based; conditions: in vivo, 96 h, dose 0.5 µg/g, time 4 day
# [21] = Toxicity in BALB/c mouse infected with Candida albicans 901 assessed as pathological change in lung at 0.5 ug/g administered 6 times measured after 4 days in presence of Biphenyl isopropyl ester by H and E staining based analysis; format: tissue-based; conditions: in vivo, 96 h, dose 0.5 µg/g, time 4 day
# [22] = Toxicity in BALB/c mouse infected with Candida albicans 901 assessed as pathological change in spleen at 0.5 ug/g administered 6 times measured after 4 days in presence of Biphenyl isopropyl ester by H and E staining based analysis; format: tissue-based; conditions: in vivo, 96 h, dose 0.5 µg/g, time 4 day
# [23] = Toxicity in BALB/c mouse infected with Candida albicans 901 assessed as pathological change in liver at 0.5 ug/g administered 6 times measured after 4 days in presence of Biphenyl isopropyl ester by H and E staining based analysis; format: tissue-based; conditions: in vivo, 96 h, dose 0.5 µg/g, time 4 day
# [24] = Toxicity in BALB/c mouse infected with Candida albicans 901 assessed as pathological change in kidney at 0.5 ug/g administered 6 times measured after 4 days in presence of Biphenyl isopropyl ester by H and E staining based analysis; format: tissue-based; conditions: in vivo, 96 h, dose 0.5 µg/g, time 4 day
# Mus musculus [25] = test: Antiinflammatory activity in BALB/c mouse infected with Candida albicans 901 assessed as decrease in INF-gamma level at 0.5 ug/g administered 6 times measured after 4 days by Western blot analysis; format: functional, organism-based; conditions: dose 0.5 µg/g, time 4.0 day
# Mus musculus [26] = test: Antiinflammatory activity in BALB/c mouse infected with Candida albicans 901 assessed as decrease in NLRP3 level at 0.5 ug/g administered 6 times measured after 4 days by Western blot analysis; format: functional, organism-based; conditions: dose 0.5 µg/g, time 4.0 day
# Mus musculus [27] = test: Antiinflammatory activity in BALB/c mouse infected with Candida albicans 901 assessed as decrease in kappaB-p65 level at 0.5 ug/g administered 6 times measured after 4 days by Western blot analysis; format: functional, organism-based; conditions: dose 0.5 µg/g, time 4.0 day
# Candida albicans [28] = test: Induction of immunity in BALB/c mouse infected with Candida albicans 901 assessed as decrease in PD-L1 level at 0.5 ug/g administered 6 times measured after 4 days by Western blot analysis; format: functional, organism-based; conditions: dose 0.5 µg/g, time 4.0 day
# Candida albicans [29] = test: Induction of immunity in BALB/c mouse infected with Candida albicans 901 assessed as decrease in PD-L1 level at 0.5 ug/g administered 6 times measured after 4 days in presence of Biphenyl isopropyl ester by Western blot analysis; format: functional, organism-based; conditions: dose 0.5 µg/g, time 4.0 day
# Candida albicans [30] = test: Induction of immunity in BALB/c mouse infected with Candida albicans 901 assessed as decrease in PD-L1 level at 0.5 ug/g administered 6 times measured after 4 days by IHC analysis; format: functional, organism-based; conditions: dose 0.5 µg/g, time 4.0 day
# Candida albicans [31] = test: Induction of immunity in BALB/c mouse infected with Candida albicans 901 assessed as decrease in PD-L1 level at 0.5 ug/g administered 6 times measured after 4 days in presence of Biphenyl isopropyl ester by IHC analysis; format: functional, organism-based; conditions: dose 0.5 µg/g, time 4.0 day
smiles,measurement,setting,value
CC(=O)N1CCN(c2ccc(OCC3COC(Cn4ccnc4)(c4ccc(Cl)cc4Cl)O3)cc2)CC1 (stereo not given) [KETOCONAZOLE],Activity,[1],5.07%
same,Activity,[2],13.06%
same,MIC50,Candida albicans [3],0.25 µg/mL
same,MIC50,Nakaseomyces glabratus,1 µg/mL
same,MIC50,Candida tropicalis,0.5 µg/mL
same,MIC50,Cryptococcus neoformans,4 µg/mL
same,MIC50,Aspergillus fumigatus,4 µg/mL
same,MIC50,Candida albicans [4],≥ 8 µg/mL
same,MIC50,Candida albicans [5],4 µg/mL
same,MIC50,Candida albicans [6],≥ 8 µg/mL
same,MIC50,Candida albicans [7],4 µg/mL
same,MIC50,Candida albicans [8],4 µg/mL
same,IC50,[9],130 nM
same,Activity,Candida albicans [10],34.74%
same,Activity,Candida albicans [11],25.91%
same,Activity,Candida albicans [12],25.91%
same,Activity,Candida albicans [13],Active
same,inhibition,Candida albicans [14],Active
same,inhibition,Candida albicans [15],Active
same,Activity,Candida albicans [16],Active
same,Activity,Candida albicans [17],Active
same,Activity,Candida albicans [18],Active
same,Activity,Candida albicans [19],Active
same,Activity,[20],Non-Toxic
same,Activity,[21],Non-Toxic
same,Activity,[22],Non-Toxic
same,Activity,[23],Non-Toxic
same,Activity,[24],Non-Toxic
same,Activity,Mus musculus [25],inactive
same,Activity,Mus musculus [26],inactive
same,Activity,Mus musculus [27],inactive
same,Activity,Candida albicans [28],Active
same,Activity,Candida albicans [29],Active
same,Activity,Candida albicans [30],Active
same,Activity,Candida albicans [31],Active
